Assays:
[1] = tested on: HIV-1 (latent, in resting CD4+ T cells from infected individuals); details: earlier study of the inventors (32); cited from earlier work
[2] = tested on: HIV-1 (latent, in resting CD4+ T cells from infected individuals)
Text: (§1) The final DMSO percentage was 0.2% (v/v) for all single and combination treatments. Concentrations were chosen based on previous ex vivo studies with rCD4s from infected individuals as well as studies using in vitro latency models (13, 28, 29, 32-34) with the aim of selecting clinically relevant concentrations.
(§2) The Bliss independence model, one method to predict the expected combined effects of multiple drugs assuming the drugs act through independent mechanisms, as a metric by which to evaluate the latency reversing activity of drug combinations was used. The Bliss independence model is defined by the equation:
(§3) If Dfaxy=0, then the drug combination follows the Bliss model for independent action. […] In this analysis, the fraction affected was calculated as follows for intracellular HIV-1 mRNA and for supernatant HIV-1 virion quantitation:
(§4) fax=(copies drug X−copies DMSO control)/(copies PMA/I−copies DMSO control)

[3] = tested on: HIV-1 (latent, in resting CD4+ T cells from infected individuals); format: cell-based; details: for virus release into supernatant (in words): 24 hours of treatment; for ρ, median fold change in supernatant HIV-1 mRNA versus DMSO control observed in the ex vivo assay: lower bound, as no virion production was detectable for DMSO
Description: Production and release of HIV-1 virions by LRA-treated rCD4s indicates complete reversal of latency in those cells. To assess whether combinations of LRAs induced rapid virus release, HIV-1 mRNA were measured in the culture supernatants of LRA-treated rCD4s from infected individuals on suppressive ART using an RT-qPCR assay previously shown to provide sensitive and accurate quantitation of HIV-1 virion production (45). […] The Bliss independence model was applied to quantitate interactions between LRAs.
as §1
HIV-1 mRNA was extracted from 0.25 mL of supernatant from the LRA-treated cell cultures described above with 0.75 mL of TRIzol® LS Reagent (Invitrogen) according to the manufacturer's protocol. cDNA synthesis and real-time quantitative PCR was performed as described (32). […] The limit of detection for each qPCR was 10 copies per reaction, which scaled to a limit of detection of 150 copies per mL of culture supernatant. Primers and probes are listed below. Molecular standard curve was generated as described above.
as §2, §3, §4

[4] = continuous infusion for 14 or 21 days; cited from earlier work
[5] = cancer patients; cited from earlier work
[6] = tested on: HIV-1 (latent, in resting CD4+ T cells from infected individuals); details: earlier study (32); cited from earlier work
HIV-1 = details: patients on ART; cited from earlier work

SMILES	latency reversal in rCD4s from infected individuals (in words) [1]	virus release into supernatant (in words) [3]	ρ, median fold change in supernatant HIV-1 mRNA versus DMSO control observed in the ex vivo assay [3]	further results
Cc1sc2c(c1C)C(c1ccc(Cl)cc1)=N[C@@H](CC(=O)OC(C)(C)C)c1nnc(C)n1-2 [JQ1]	only minimally active			
CCC/C=C/C=C/C(=O)O[C@H]1/C(=C/C(=O)OC)C[C@H]2C[C@H]([C@@H](C)O)OC(=O)C[C@H](O)C[C@@H]3C[C@H](OC(C)=O)C(C)(C)[C@](O)(C[C@@H]4C/C(=C/C(=O)OC)C[C@H](/C=C/C(C)(C)[C@]1(O)O2)O4)O3 [bryostatin-1]		significant virus release	120	induction of intracellular HIV-1 mRNA (significance, in words) ([2]; 1 nM bryostatin-1): did not induce significant intracellular HIV-1 mRNA; mean increase in intracellular HIV-1 mRNA, fold induction relative to DMSO control ([2]; rCD4s from infected individuals on ART, 24 h, 10 nM bryostatin-1, 300 nM prostratin, 40 nM romidepsin, 50 ng/mL PMA + 1 μM ionomycin): 12.8 fold; intracellular HIV-1 mRNA induction relative to the maximum reactivation elicited by T cell activation [1]: four; approximated maximally tolerated dose [4]: ~16 μg/m2/day; clinical tolerability (in words) [5]: dose limiting toxicities grade 3/4 myalgia, arthralgia, and weakness
CC(=O)O[C@@]12C[C@@H](C)[C@@]3(O)[C@@H](C=C(CO)C[C@]4(O)C(=O)C(C)=C[C@@H]34)[C@@H]1C2(C)C [prostratin]		significant virus release	209	
C/C=C1\NC(=O)[C@H]2CSSCC/C=C/[C@H](CC(=O)N[C@H](C(C)C)C(=O)N2)OC(=O)[C@H](C(C)C)NC1=O [romidepsin]			15	
O=C(CCCCCCC(=O)Nc1ccccc1)NO [vorinostat]	only minimally active			viral production ex vivo (in words) [6]: fail to stimulate detectable viral production; increase in plasma HIV-1 RNA using quantitative clinical assays (in words) (HIV-1): no increases in plasma HIV-1 RNA

From patent US20180169108A1, “Drug Combinations For the Treatment of HIV” (The Johns Hopkins University, priority 2015, published 2018)
